# Tests used:
# Experiment in all cases: post-emergent herbicidal activity, greenhouse
# Format in all cases: in vivo
# Conditions in all cases: Table I
# Smartweed = test system: Smartweed
# Description: (§1) A good grade of top soil is placed in aluminum pans having holes in the bottom and compacted to a depth of 0.95 to 1.27 cm. from the top of the pan. A predetermined number of seeds of each of several dicotyledonous and monocotyledonous annual plant species and/or vegetative propagules for the perennial plant species were placed on the soil and pressed into the soil surface. The seeds and/or vegetative propagules are covered with soil and leveled. The pans are then placed on a sand bench in the greenhouse and watered from below as needed. After the plants reach the desired age (two to three weeks), each pan except for the control pans is removed individually to a spraying chamber and sprayed by means of an atomizer operating at a positive air pressure of approximately 1.46 kg/cm^2 absolute. The atomizer contains 6 ml. of a solution or suspension of the chemical. In that 6 ml., is an amount of a cyclohexanone emulsifying agent mixture to give a spray solution or suspension which contains about 0.4% by weight of the emulsifier. The spray solution or suspension contains a sufficient amount of the candidate chemical in order to give application rates corresponding to those set forth in the tables. The spray solution is prepared by taking an aliquot of a 1.0% by weight stock solution or suspension of the candidate chemical in an organic solvent such as acetone or tetrahydrofuran or in water. The emulsifying agent employed is a mixture comprising 35 weight percent butylamine dodecylbenzene sulfonate and 65 weight percent of a tall oil ethylene oxide condensate having about 11 moles of ethylene oxide per mole of tall oil. The pans are returned to the greenhouse and watered as before and the injury to the plants as compared to the control is observed at approximately two and four weeks as indicated in the tables under WAT and the results recorded. In some instances, the two-week observations are omitted.
# (§2) The post-emergent herbicidal activity index used in Tables I and II is as follows: […]
# Morningglory = test system: Morningglory
# Description: as §1, §2
# Quackgrass = test system: Quackgrass
# Description: as §1, §2
# Johnsongrass = test system: Johnsongrass
# Description: as §1, §2
# Downy Brome = test system: Downy Brome
# Description: as §1, §2
# Cocklebur = test system: Cocklebur
# Description: as §1, §2
# Canada Thistle = test system: Canada Thistle
# Description: as §1, §2
# Velvetleaf = test system: Velvetleaf
# Description: as §1, §2
# Barnyardgrass = test system: Barnyardgrass
# Description: as §1, §2
# Yellow Nutsedge = test system: Yellow Nutsedge
# Description: as §1, §2
# Lambsquarters = test system: Lambsquarters
# Description: as §1, §2
Compound,"post-emergent herbicidal activity index (Smartweed; 4 WAT, 5.6 kg/h)","post-emergent herbicidal activity index (Smartweed; 4 WAT, 11.2 kg/h)","post-emergent herbicidal activity index (Morningglory; 4 WAT, 5.6 kg/h)","post-emergent herbicidal activity index (Morningglory; 4 WAT, 11.2 kg/h)","post-emergent herbicidal activity index (Quackgrass; 4 WAT, 5.6 kg/h)","post-emergent herbicidal activity index (Quackgrass; 4 WAT, 11.2 kg/h)","post-emergent herbicidal activity index (Johnsongrass; 4 WAT, 5.6 kg/h)","post-emergent herbicidal activity index (Johnsongrass; 4 WAT, 11.2 kg/h)","post-emergent herbicidal activity index (Downy Brome; 4 WAT, 5.6 kg/h)","post-emergent herbicidal activity index (Downy Brome; 4 WAT, 11.2 kg/h)","post-emergent herbicidal activity index (Cocklebur; 4 WAT, 5.6 kg/h)","post-emergent herbicidal activity index (Cocklebur; 4 WAT, 11.2 kg/h)","post-emergent herbicidal activity index (Canada Thistle; 4 WAT, 5.6 kg/h)","post-emergent herbicidal activity index (Canada Thistle; 4 WAT, 11.2 kg/h)","post-emergent herbicidal activity index (Velvetleaf; 4 WAT, 5.6 kg/h)","post-emergent herbicidal activity index (Velvetleaf; 4 WAT, 11.2 kg/h)","post-emergent herbicidal activity index (Barnyardgrass; 4 WAT, 5.6 kg/h)","post-emergent herbicidal activity index (Barnyardgrass; 4 WAT, 11.2 kg/h)","post-emergent herbicidal activity index (Yellow Nutsedge; 4 WAT, 11.2 kg/h)","post-emergent herbicidal activity index (Lambsquarters; 4 WAT, 11.2 kg/h)",further results
CCOC(=O)CNCP(=O)(OC(C)C(=O)OC)OC(C)C(=O)OC (stereo not shown) [Example 18],0 (0-24% control),0 (0-24% control),1 (25-49% control),1 (25-49% control),0 (0-24% control),3 (75-99% control),0 (0-24% control),1 (25-49% control),0 (0-24% control),2 (50-74% control),0 (0-24% control),0 (0-24% control),0 (0-24% control),0 (0-24% control),0 (0-24% control),0 (0-24% control),1 (25-49% control),2 (50-74% control),2 (50-74% control),0 (0-24% control),"post-emergent herbicidal activity index (Yellow Nutsedge; 4 WAT, 5.6 kg/h): 1 (25-49% control); post-emergent herbicidal activity index (Lambsquarters; 4 WAT, 5.6 kg/h): 0 (0-24% control)"
"CCOC(=O)CNCP(=O)(OCCSC(=O)OCC)OCCSC(=O)OCC [Example 19, glycine, N-[[bis[2-[(ethoxycarbonyl)thio]ethoxy]-phosphinyl]methyl]-, ethyl ester]",0 (0-24% control),1 (25-49% control),2 (50-74% control),2 (50-74% control),0 (0-24% control),1 (25-49% control),1 (25-49% control),2 (50-74% control),0 (0-24% control),0 (0-24% control),0 (0-24% control),2 (50-74% control),1 (25-49% control),2 (50-74% control),0 (0-24% control),0 (0-24% control),1 (25-49% control),2 (50-74% control),1 (25-49% control),0 (0-24% control),"post-emergent herbicidal activity index (Yellow Nutsedge; 4 WAT, 5.6 kg/h): 0 (0-24% control); post-emergent herbicidal activity index (Lambsquarters; 4 WAT, 5.6 kg/h): 0 (0-24% control)"
"CCOC(=O)CNCP(=O)(OC1CCCSC1)OC1CCCSC1 (stereo not shown) [Example 20, glycine, N-[[bis[(tetrahydro-2H-thiopyran-3-yl)-oxy]-phosphinyl]methyl]-, ethyl ester]",,0 (0-24% control),,1 (25-49% control),,1 (25-49% control),,0 (0-24% control),,0 (0-24% control),,0 (0-24% control),,0 (0-24% control),,1 (25-49% control),,1 (25-49% control),0 (0-24% control),1 (25-49% control),"post-emergent herbicidal activity index (Smartweed; 2 WAT, 5.6 kg/h): 0 (0-24% control); post-emergent herbicidal activity index (Morningglory; 2 WAT, 5.6 kg/h): 0 (0-24% control); post-emergent herbicidal activity index (Quackgrass; 2 WAT, 5.6 kg/h): 0 (0-24% control); post-emergent herbicidal activity index (Johnsongrass; 2 WAT, 5.6 kg/h): 0 (0-24% control); post-emergent herbicidal activity index (Downy Brome; 2 WAT, 5.6 kg/h): 0 (0-24% control); post-emergent herbicidal activity index (Cocklebur; 2 WAT, 5.6 kg/h): 0 (0-24% control); post-emergent herbicidal activity index (Canada Thistle; 2 WAT, 5.6 kg/h): 0 (0-24% control); post-emergent herbicidal activity index (Velvetleaf; 2 WAT, 5.6 kg/h): 0 (0-24% control); post-emergent herbicidal activity index (Barnyardgrass; 2 WAT, 5.6 kg/h): 0 (0-24% control); post-emergent herbicidal activity index (Yellow Nutsedge; 2 WAT, 5.6 kg/h): 0 (0-24% control); post-emergent herbicidal activity index (Lambsquarters; 2 WAT, 5.6 kg/h): 0 (0-24% control)"
"CCOC(=O)CNCP(=O)(OCc1ccco1)OCc1ccco1 [Example 21, glycine, N-[[bis(2-furanylmethoxy)phosphinyl]methyl]-, ethyl ester]",,0 (0-24% control),,1 (25-49% control),,0 (0-24% control),,0 (0-24% control),,0 (0-24% control),,0 (0-24% control),,0 (0-24% control),,0 (0-24% control),,0 (0-24% control),0 (0-24% control),0 (0-24% control),"post-emergent herbicidal activity index (Smartweed; 4 WAT, 56.0 kg/h): 1 (25-49% control); post-emergent herbicidal activity index (Morningglory; 4 WAT, 56.0 kg/h): 2 (50-74% control); post-emergent herbicidal activity index (Quackgrass; 4 WAT, 56.0 kg/h): 0 (0-24% control); post-emergent herbicidal activity index (Johnsongrass; 4 WAT, 56.0 kg/h): 0 (0-24% control); post-emergent herbicidal activity index (Downy Brome; 4 WAT, 56.0 kg/h): 1 (25-49% control); post-emergent herbicidal activity index (Cocklebur; 4 WAT, 56.0 kg/h): 2 (50-74% control); post-emergent herbicidal activity index (Canada Thistle; 4 WAT, 56.0 kg/h): 3 (75-99% control); post-emergent herbicidal activity index (Velvetleaf; 4 WAT, 56.0 kg/h): 1 (25-49% control); post-emergent herbicidal activity index (Barnyardgrass; 4 WAT, 56.0 kg/h): 2 (50-74% control); post-emergent herbicidal activity index (Yellow Nutsedge; 4 WAT, 56.0 kg/h): 1 (25-49% control); post-emergent herbicidal activity index (Lambsquarters; 4 WAT, 56.0 kg/h): 1 (25-49% control)"
"CCOC(=O)CNCP(=O)(OCC1CCCCO1)OCC1CCCCO1 (stereo not shown) [Example 23, glycine, N-[[bis(tetrahydro-2H-pyran-2-ylmethoxy)phosphinyl]methyl]-, ethyl ester]",,1 (25-49% control),,1 (25-49% control),,0 (0-24% control),,,,0 (0-24% control),,0 (0-24% control),,0 (0-24% control),,0 (0-24% control),,1 (25-49% control),0 (0-24% control),0 (0-24% control),"post-emergent herbicidal activity index (Smartweed; 2 WAT, 5.6 kg/h): 0 (0-24% control); post-emergent herbicidal activity index (Morningglory; 2 WAT, 5.6 kg/h): 0 (0-24% control); post-emergent herbicidal activity index (Quackgrass; 2 WAT, 5.6 kg/h): 0 (0-24% control); post-emergent herbicidal activity index (Johnsongrass; 2 WAT, 5.6 kg/h): 0 (0-24% control); post-emergent herbicidal activity index (Downy Brome; 2 WAT, 5.6 kg/h): 0 (0-24% control); post-emergent herbicidal activity index (Cocklebur; 2 WAT, 5.6 kg/h): 0 (0-24% control); post-emergent herbicidal activity index (Canada Thistle; 2 WAT, 5.6 kg/h): 0 (0-24% control); post-emergent herbicidal activity index (Velvetleaf; 2 WAT, 5.6 kg/h): 0 (0-24% control); post-emergent herbicidal activity index (Barnyardgrass; 2 WAT, 5.6 kg/h): 0 (0-24% control); post-emergent herbicidal activity index (Yellow Nutsedge; 2 WAT, 5.6 kg/h): 0 (0-24% control); post-emergent herbicidal activity index (Lambsquarters; 2 WAT, 5.6 kg/h): 0 (0-24% control)"

# Reference: US4442044A, “Process for preparing monoesters and diesters of N-alkyl substituted amino methyl phosphonic acid” (priority 1983, dated 1984)
